Converted amounts (≈) assume the structure as drawn. The source made the active and inactive calls. The rule behind the calls is not given here.
Assays:
Legionella pneumophila = assay: Antibacterial activity against Legionella pneumophila subsp. pneumophila; assay type: functional
Staphylococcus aureus = assay: Antibacterial activity against Staphylococcus aureus; assay type: functional
Enterococcus hirae = assay: Antibacterial activity against Enterococcus hirae; assay type: functional
[1] = Antioxidant activity assessed as DPPH radical scavenging activity at 10 to 200 ug/ml; assay type: functional; conditions: dose 10-200 µg/ml
Pseudomonas aeruginosa = assay: Antibacterial activity against Pseudomonas aeruginosa; assay type: functional
Candida tropicalis = assay: Antifungal activity against Candida tropicalis; assay type: functional
DNA = assay: Induction of Escherichia coli supercoiled pBR322 DNA cleavage assessed as increase in formation of linear form of DNA at 250 ug/ml by agarose gel electrophoresis; assay type: nucleic-acid assay; conditions: dose 250.0 µg/ml
[2] = Antioxidant activity assessed as ferrous ion chelating activity at 200 ug/ml; assay type: functional; conditions: dose 200.0 µg/ml
Candida albicans = assay: Antifungal activity against Candida albicans; assay type: functional
Bacillus cereus = assay: Antibacterial activity against Bacillus cereus; assay type: functional
Escherichia coli = assay: Antibacterial activity against Escherichia coli; assay type: functional
[3] = Antioxidant activity assessed as DPPH radical scavenging activity at 200 ug/ml relative to control; assay type: functional; conditions: dose 200.0 µg/ml
[4] = Antioxidant activity assessed as ferrous ion chelating activity at 10 ug/ml; assay type: functional; conditions: dose 10.0 µg/ml

| SMILES | MIC (Legionella pneumophila) | MIC (Staphylococcus aureus) | MIC (Enterococcus hirae) | Activity [1] | MIC (Pseudomonas aeruginosa) | MIC (Candida tropicalis) | Activity (DNA) | Activity [2] | MIC (Candida albicans) | MIC (Bacillus cereus) | MIC (Escherichia coli) | Activity [3] | Activity [4] |
| --- | --- | --- | --- | --- | --- | --- | --- | --- | --- | --- | --- | --- | --- |
| O=C(Cn1cc(CCn2cc(CCc3ccccc3)nn2)nn1)Nc1ccc(NC(=O)Cn2cc(CCn3cc(CCc4ccccc4)nn3)nn2)cc1 | 64 µg/mL (≈ 88.3 µM) | 64 µg/mL (≈ 88.3 µM) | 64 µg/mL (≈ 88.3 µM) | Active | 64 µg/mL (≈ 88.3 µM) | 16 µg/mL (≈ 22.1 µM) | Active | 17.3% | 64 µg/mL (≈ 88.3 µM) | 128 µg/mL (≈ 177 µM) | 128 µg/mL (≈ 177 µM) |  |  |
| CC(C)CCc1cn(CCc2cn(CC(=O)Nc3ccc(NC(=O)Cn4cc(CCn5cc(CCC(C)C)nn5)nn4)cc3)nn2)nn1 | 16 µg/mL (≈ 24.4 µM) | 32 µg/mL (≈ 48.7 µM) | 16 µg/mL (≈ 24.4 µM) |  | 32 µg/mL (≈ 48.7 µM) | 32 µg/mL (≈ 48.7 µM) | Active | 44.9% | 64 µg/mL (≈ 97.4 µM) | 128 µg/mL (≈ 195 µM) | 128 µg/mL (≈ 195 µM) | 21.9% |  |
| O=C(Cn1cc(CC2CCCCC2)nn1)Nc1ccc(NC(=O)Cn2cc(CC3CCCCC3)nn2)cc1 | 16 µg/mL (≈ 30.8 µM) | 64 µg/mL (≈ 123 µM) | 8 µg/mL (≈ 15.4 µM) | Active | 64 µg/mL (≈ 123 µM) | 32 µg/mL (≈ 61.7 µM) | Active | 33.8% | 16 µg/mL (≈ 30.8 µM) | 64 µg/mL (≈ 123 µM) | 4 µg/mL (≈ 7.71 µM) |  |  |
| O=C(Cn1cc(CCn2cc(C3CC3)nn2)nn1)Nc1ccc(NC(=O)Cn2cc(CCn3cc(C4CC4)nn3)nn2)cc1 | 32 µg/mL (≈ 53.6 µM) | 64 µg/mL (≈ 107 µM) | 64 µg/mL (≈ 107 µM) | Active | 64 µg/mL (≈ 107 µM) | 64 µg/mL (≈ 107 µM) | Active | 42.8% | 128 µg/mL (≈ 215 µM) | 64 µg/mL (≈ 107 µM) | 128 µg/mL (≈ 215 µM) |  |  |
| CC(C)CCc1cn(CC(=O)Nc2ccc(NC(=O)Cn3cc(CCC(C)C)nn3)cc2)nn1 | 32 µg/mL (≈ 68.6 µM) | 64 µg/mL (≈ 137 µM) | 32 µg/mL (≈ 68.6 µM) | Active | 64 µg/mL (≈ 137 µM) | 32 µg/mL (≈ 68.6 µM) | Active | 70.8% | 64 µg/mL (≈ 137 µM) | 64 µg/mL (≈ 137 µM) | 128 µg/mL (≈ 274 µM) |  | 22% |
| CCOC(=O)c1cn(CC(=O)Nc2ccc(NC(=O)Cn3cc(C(=O)OCC)nn3)cc2)nn1 | 64 µg/mL (≈ 136 µM) | 32 µg/mL (≈ 68 µM) | 64 µg/mL (≈ 136 µM) | Active | 64 µg/mL (≈ 136 µM) | 32 µg/mL (≈ 68 µM) | Active | 46.5% | 64 µg/mL (≈ 136 µM) | 64 µg/mL (≈ 136 µM) | 128 µg/mL (≈ 272 µM) |  |  |
| OC(Cn1cncn1)(Cn1cncn1)c1ccc(F)cc1F [FLUCONAZOLE] |  |  |  |  |  | 0.5 µg/mL (≈ 1.63 µM) |  |  | 0.5 µg/mL (≈ 1.63 µM) |  |  |  |  |
| O=C(Cn1cc(CCn2cc(C3CCCC3)nn2)nn1)Nc1ccc(NC(=O)Cn2cc(CCn3cc(C4CCCC4)nn3)nn2)cc1 | 128 µg/mL (≈ 196 µM) | 16 µg/mL (≈ 24.5 µM) | 4 µg/mL (≈ 6.13 µM) | Active | 64 µg/mL (≈ 98 µM) | 4 µg/mL (≈ 6.13 µM) | Active | 43.9% | 32 µg/mL (≈ 49 µM) | 64 µg/mL (≈ 98 µM) | 128 µg/mL (≈ 196 µM) |  |  |
| CC1(C)S[C@@H]2[C@H](NC(=O)[C@H](N)c3ccccc3)C(=O)N2[C@H]1C(=O)O [AMPICILLIN] | 0.5 µg/mL (≈ 1.43 µM) | 1 µg/mL (≈ 2.86 µM) | 0.5 µg/mL (≈ 1.43 µM) |  | 0.5 µg/mL (≈ 1.43 µM) |  |  |  |  | 1 µg/mL (≈ 2.86 µM) | 0.5 µg/mL (≈ 1.43 µM) |  |  |
| O=C(Cn1cc(CCBr)nn1)Nc1ccc(NC(=O)Cn2cc(CCBr)nn2)cc1 | 32 µg/mL (≈ 59.2 µM) | 64 µg/mL (≈ 118 µM) | 32 µg/mL (≈ 59.2 µM) |  | 64 µg/mL (≈ 118 µM) | 32 µg/mL (≈ 59.2 µM) | Active | 30.4% | 64 µg/mL (≈ 118 µM) | 64 µg/mL (≈ 118 µM) | 128 µg/mL (≈ 237 µM) | 30.5% |  |
